Literature values as cited in patent US12673064B2, “Biodegradable drug-polymer conjugate” (POLYACTIVA PTY LTD, priority 2019, dated 2026).

How the values were obtained:
[1] = 0.002% dosage, week 1

SMILES | IOP and total outflow resistance (monkeys) | uveoscleral outflow or aqueous flow (monkeys) | effectiveness versus latanoprost 0.005% [1]
CCCCC[C@H](O)/C=C/[C@H]1[C@H](O)CC(=O)[C@@H]1SCCCSCC(=O)O [3,7-dithia-PGE1] | reduced | without affecting | –
CC(C)OC(=O)CNc1cccc(CN(Cc2ccc(-n3cccn3)cc2)S(=O)(=O)c2cccnc2)n1 [Omidenepag isopropyl] | – | – | more effective than latanoprost 0.005%
